This note sets out measurements from US20070145618A1, “Methods of making microencapsulated delivery vehicles” (Kimberly-Clark Worldwide, Inc., priority 2005, published 2007).

The conditions of data set [1]: particle size 149-355 micrometers; 35 wt % in mineral oil; added to 7.0 grams de-ionized water; compared with four other size ranges. On the procedure:
In this example, samples incorporating various size ranges of anhydrous calcium chloride suspended in mineral oil at 35 wt % were evaluated for their ability to generate heat upon introduction into water.
The five size ranges of anhydrous calcium chloride evaluated were: (1) less than 149 microns; (2) 149-355 microns; (3) 710-1190 microns; (4) 1190-2000 microns; and (5) 2000-4000 microns. The samples of anhydrous calcium chloride (Dow Chemical, Midland, Mich.) were dispersed in mineral oil (available as Drakeol 7 LT NF from Penreco, Dickinson, Tex.). The as received anhydrous calcium chloride were screened dry using a Gilson Sonic Sieve (Gilson Company, Inc. Columbus, Ohio) to create two sizes, a 1190-2000 micron size and a 2000-4000 micron size. These powders were then suspended at 35 wt % in mineral oil to form a slurry using a cowles mixing blade. To achieve the smaller size distributions, the anhydrous calcium chloride powder required further processing. […]
All five samples were then individually added to 7.0 grams de-ionized water and the resulting temperature rise was measured using a Barnant Scanning Thermocouple (available from Therm-X of California, Hayward, Calif.).

The conditions of data set [2]: particle size less than 250 micrometers; 35 wt % in mineral oil; added to 7.0 grams de-ionized water; compared with three other size ranges. On the procedure:
In this example, samples incorporating various size ranges of anhydrous magnesium chloride suspended in mineral oil at 35 wt % were evaluated for their ability to generate heat upon introduction into water.
The four size ranges of anhydrous magnesium chloride evaluated were: (1) 1000-1500 microns; (2) 600-1000 microns; (3) 250-600 microns; and (4) less than 250 microns. To produce the samples of anhydrous magnesium chloride in mineral oil, the various size ranges of anhydrous magnesium chloride powder (Magnesium Interface Inc. (Vancouver, B.C., Canada) were suspended at 35 wt % in mineral oil (available as Drakeol 7 LT NF from Penreco, Dickinson, Tex.). To produce the samples having anhydrous magnesium chloride with size ranges of 1000-1500 microns, 600-1000 microns, and 250-600 microns, the as received anhydrous magnesium chloride powder was hand screened into the size ranges desired and the powders collected. These powders were suspended at 35 wt % in mineral oil using a cowles mixing blade. […]
All four samples were then added to 7.0 grams de-ionized water and the resulting temperature rise was measured using a J type Thermocouple (available from Omega Engineering, Inc., Stamford, Conn.).

Where two headings read alike, the source gives them in different places.

With `[Ca+2].[Cl-].[Cl-]` [anhydrous calcium chloride, calcium chloride], the “rate of heat release (heat generation rate)” value in data set [1] was “highest rate”.

Regarding `[Cl-].[Cl-].[Mg+2]` [anhydrous magnesium chloride, magnesium chloride], the “rate of heat release (heat generation rate)” value in data set [2] is listed as “highest rate”.
